Assay results: EP3154958B1, “PHOSPHATIDYLINOSITOL 3-KINASE INHIBITORS” (Gilead Sciences, Inc., priority 2014, dated 2015)

Experiments:
Assay type in all cases: biochemical
[1] = biological target: T1, PI3Kβ (Homo sapiens, UniProt P42338); experiment: TR-FRET enzymatic activity assay, PI3Kβ; conditions: recombinant heterodimeric PI3Kβ 25-50 pM, 2× Km ATP, 30 minutes at 25°C
T1 construct: made in house
Summary of the method: (§1)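 Enzymatic activity against the PI3K isoforms was measured using a time-resolved fluorescence resonance energy transfer (TR-FRET) assay.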

[2] = biological target: T2, PI3Kδ (Homo sapiens, UniProt O00329); experiment: TR-FRET enzymatic activity assay, PI3Kδ; conditions: recombinant heterodimeric PI3Kδ 25-50 pM, 2× Km ATP, 30 minutes at 25°C
T2 construct: made in house
T2 sequence (O00329 whole entry): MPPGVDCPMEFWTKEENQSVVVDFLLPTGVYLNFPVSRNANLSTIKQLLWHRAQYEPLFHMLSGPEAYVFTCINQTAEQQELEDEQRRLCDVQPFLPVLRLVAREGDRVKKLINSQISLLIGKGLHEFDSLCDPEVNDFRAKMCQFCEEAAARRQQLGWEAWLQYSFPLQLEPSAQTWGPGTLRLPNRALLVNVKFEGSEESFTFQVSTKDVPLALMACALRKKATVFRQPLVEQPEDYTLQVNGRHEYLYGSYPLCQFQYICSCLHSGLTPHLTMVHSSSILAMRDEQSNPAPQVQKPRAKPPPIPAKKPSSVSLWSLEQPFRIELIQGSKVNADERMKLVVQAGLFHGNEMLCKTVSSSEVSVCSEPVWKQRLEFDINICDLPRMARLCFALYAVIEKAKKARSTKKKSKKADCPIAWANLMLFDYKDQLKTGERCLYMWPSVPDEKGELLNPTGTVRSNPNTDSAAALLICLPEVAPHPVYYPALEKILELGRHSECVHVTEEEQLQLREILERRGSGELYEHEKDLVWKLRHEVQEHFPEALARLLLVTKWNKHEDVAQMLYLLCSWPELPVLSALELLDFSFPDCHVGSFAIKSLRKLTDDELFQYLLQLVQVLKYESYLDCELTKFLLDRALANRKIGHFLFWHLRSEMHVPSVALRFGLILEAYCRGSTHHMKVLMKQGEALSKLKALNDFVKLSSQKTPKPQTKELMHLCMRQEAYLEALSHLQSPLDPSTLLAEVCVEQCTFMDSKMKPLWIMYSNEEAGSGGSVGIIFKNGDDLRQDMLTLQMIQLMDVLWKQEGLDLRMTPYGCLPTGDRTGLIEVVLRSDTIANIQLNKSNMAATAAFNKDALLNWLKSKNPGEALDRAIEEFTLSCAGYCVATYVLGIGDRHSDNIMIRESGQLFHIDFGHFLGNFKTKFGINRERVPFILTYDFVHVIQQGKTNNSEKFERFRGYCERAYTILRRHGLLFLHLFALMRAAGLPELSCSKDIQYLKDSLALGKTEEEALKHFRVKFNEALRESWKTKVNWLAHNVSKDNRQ
T2 sequence (P27986 whole entry partner): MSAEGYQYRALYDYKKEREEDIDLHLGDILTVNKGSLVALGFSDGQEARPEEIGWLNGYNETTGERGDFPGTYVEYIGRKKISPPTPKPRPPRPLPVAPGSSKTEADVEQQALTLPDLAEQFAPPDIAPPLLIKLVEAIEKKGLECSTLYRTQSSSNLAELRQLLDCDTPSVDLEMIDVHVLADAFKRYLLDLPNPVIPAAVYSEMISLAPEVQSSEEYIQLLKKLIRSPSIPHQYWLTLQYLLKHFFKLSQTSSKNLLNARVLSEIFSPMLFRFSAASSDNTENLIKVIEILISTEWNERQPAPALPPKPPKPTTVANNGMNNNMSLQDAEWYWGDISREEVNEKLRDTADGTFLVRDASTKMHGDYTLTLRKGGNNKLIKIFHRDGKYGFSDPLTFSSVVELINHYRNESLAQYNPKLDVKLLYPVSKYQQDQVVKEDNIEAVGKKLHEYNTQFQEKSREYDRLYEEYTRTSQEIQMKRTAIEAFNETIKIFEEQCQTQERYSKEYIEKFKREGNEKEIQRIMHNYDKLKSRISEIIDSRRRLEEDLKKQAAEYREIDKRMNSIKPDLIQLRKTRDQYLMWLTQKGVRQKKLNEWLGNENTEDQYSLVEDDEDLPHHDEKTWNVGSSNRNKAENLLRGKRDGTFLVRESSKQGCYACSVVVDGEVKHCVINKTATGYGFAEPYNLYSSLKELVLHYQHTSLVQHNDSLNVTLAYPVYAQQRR
Summary of the method: as §1

[3] = biological target: T3, PI3Kγ (Homo sapiens, UniProt P48736); experiment: TR-FRET enzymatic activity assay, PI3Kγ; conditions: recombinant heterodimeric PI3Kγ 2 nM, 2× Km ATP, 30 minutes at 25°C
T3 construct: made in house
T3 sequence (P48736 whole entry): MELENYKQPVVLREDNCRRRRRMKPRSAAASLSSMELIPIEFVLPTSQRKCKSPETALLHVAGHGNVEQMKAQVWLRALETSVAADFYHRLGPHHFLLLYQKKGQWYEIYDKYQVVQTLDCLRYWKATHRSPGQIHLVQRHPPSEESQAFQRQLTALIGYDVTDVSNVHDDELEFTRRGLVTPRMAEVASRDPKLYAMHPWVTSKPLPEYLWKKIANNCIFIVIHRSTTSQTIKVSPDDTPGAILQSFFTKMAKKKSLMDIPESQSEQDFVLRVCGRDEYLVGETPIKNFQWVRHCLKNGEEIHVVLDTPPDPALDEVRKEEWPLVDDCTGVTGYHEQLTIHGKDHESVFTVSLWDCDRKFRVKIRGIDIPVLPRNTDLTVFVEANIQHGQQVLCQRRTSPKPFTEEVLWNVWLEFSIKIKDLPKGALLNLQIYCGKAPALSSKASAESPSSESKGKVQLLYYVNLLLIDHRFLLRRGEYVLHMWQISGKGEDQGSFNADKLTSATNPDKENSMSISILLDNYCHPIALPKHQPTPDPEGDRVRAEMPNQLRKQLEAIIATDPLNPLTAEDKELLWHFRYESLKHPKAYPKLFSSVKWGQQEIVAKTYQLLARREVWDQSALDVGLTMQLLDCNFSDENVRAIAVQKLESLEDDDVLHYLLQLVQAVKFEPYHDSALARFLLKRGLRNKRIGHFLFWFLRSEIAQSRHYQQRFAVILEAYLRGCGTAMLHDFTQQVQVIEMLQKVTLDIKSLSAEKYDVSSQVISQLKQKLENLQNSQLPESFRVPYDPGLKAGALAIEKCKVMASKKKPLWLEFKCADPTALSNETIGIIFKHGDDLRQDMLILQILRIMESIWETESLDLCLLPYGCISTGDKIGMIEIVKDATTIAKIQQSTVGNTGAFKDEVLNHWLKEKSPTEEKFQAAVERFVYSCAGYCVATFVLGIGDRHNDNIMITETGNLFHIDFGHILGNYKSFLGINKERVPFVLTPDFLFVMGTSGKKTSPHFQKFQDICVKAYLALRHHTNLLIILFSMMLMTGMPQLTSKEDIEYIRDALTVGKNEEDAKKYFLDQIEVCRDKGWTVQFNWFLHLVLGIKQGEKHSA
T3 sequence (Q8WYR1 whole entry partner): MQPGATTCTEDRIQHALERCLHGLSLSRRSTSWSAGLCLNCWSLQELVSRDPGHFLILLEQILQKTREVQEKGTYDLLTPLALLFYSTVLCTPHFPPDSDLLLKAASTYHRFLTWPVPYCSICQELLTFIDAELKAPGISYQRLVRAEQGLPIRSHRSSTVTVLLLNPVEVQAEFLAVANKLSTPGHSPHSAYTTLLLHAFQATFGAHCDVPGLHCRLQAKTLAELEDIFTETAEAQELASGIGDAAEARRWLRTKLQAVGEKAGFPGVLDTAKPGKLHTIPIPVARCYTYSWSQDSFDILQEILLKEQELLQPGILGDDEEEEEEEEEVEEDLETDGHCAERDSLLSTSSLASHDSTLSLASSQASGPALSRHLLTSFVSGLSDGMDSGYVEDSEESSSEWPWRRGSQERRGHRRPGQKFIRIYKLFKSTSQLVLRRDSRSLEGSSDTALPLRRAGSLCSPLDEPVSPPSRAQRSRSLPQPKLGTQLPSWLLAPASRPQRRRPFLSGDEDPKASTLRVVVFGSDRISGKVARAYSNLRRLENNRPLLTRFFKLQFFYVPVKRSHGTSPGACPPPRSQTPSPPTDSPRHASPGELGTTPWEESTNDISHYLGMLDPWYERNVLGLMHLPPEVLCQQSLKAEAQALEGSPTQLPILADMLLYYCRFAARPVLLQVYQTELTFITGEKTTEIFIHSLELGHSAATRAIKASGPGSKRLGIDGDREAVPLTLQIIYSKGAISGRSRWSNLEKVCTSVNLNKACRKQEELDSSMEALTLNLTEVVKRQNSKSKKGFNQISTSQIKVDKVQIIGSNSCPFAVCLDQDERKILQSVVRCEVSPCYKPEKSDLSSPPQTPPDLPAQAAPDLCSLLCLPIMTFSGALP
Summary of the method: as §1

T1 sequence (P42338 whole entry): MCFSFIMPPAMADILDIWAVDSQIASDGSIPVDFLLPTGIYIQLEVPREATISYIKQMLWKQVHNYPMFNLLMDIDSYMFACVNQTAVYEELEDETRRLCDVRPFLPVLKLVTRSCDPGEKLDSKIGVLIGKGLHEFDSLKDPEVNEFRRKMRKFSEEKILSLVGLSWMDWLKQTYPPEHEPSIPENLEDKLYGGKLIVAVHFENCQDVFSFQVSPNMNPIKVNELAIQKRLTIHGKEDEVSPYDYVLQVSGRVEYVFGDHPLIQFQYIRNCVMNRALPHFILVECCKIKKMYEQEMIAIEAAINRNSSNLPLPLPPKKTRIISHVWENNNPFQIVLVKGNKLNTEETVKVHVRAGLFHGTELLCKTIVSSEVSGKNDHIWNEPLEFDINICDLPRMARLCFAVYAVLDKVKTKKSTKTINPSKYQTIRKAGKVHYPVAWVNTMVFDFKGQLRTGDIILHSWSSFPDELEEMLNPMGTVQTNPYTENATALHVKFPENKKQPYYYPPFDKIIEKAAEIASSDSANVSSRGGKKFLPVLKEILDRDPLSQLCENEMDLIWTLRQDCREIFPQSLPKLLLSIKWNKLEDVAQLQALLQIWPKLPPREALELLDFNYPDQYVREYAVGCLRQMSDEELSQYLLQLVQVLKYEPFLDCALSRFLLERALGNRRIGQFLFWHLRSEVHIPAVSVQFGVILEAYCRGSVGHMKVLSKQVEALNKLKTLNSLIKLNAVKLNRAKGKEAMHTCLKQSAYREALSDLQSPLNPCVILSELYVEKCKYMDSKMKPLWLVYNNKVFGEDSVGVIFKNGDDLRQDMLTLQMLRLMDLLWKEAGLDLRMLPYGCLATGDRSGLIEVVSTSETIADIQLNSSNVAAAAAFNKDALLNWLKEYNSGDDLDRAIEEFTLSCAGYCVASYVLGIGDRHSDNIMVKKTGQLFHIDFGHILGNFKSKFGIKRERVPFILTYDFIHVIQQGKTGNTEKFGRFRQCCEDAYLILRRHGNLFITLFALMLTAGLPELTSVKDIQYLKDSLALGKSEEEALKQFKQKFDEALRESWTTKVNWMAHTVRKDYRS
T1 sequence (P27986 whole entry partner): as the sequence (P27986 whole entry partner) above

Structure (SMILES)	IC50 [1]	IC50 [2]	IC50 [3]
CC[C@H](Nc1nc(N)nc(N)c1C#N)c1nc2cccc(Cl)c2c(=O)n1N1CCN(Cc2ccc(C(F)(F)F)cc2)CC1 [Compound 87, (S)-2,4-diamino-6-((1-(5-chloro-4-oxo-3-(4-(4-(trifluoromethyl)benzyl)piperazin-1-yl)-3,4-dihydroquinazolin-2-yl)propyl)amino)pyrimidine-5-carbonitrile]	10 µM	0.057 µM	> 10 µM
CC(C)N1CCN(n2c([C@H](C)Nc3nc(N)nc(N)c3C#N)nc3cccc(Cl)c3c2=O)CC1 [Compound 88, (S)-2,4-diamino-6-((1-(5-chloro-3-(4-isopropylpiperazin-1-yl)-4-oxo-3,4-dihydroquinazolin-2-yl)ethyl)amino)pyrimidine-5-carbonitrile]	0.12 µM	0.054 µM	5.8 µM
CC[C@H](Nc1nc(N)nc(C)c1C#N)c1nc2cccc(Cl)c2c(=O)n1N1CCN(Cc2ccc(C(F)(F)F)cc2)CC1 [Compound 89, (S)-2-amino-4-((1-(5-chloro-4-oxo-3-(4-(4-(trifluoromethyl)benzyl)piperazin-1-yl)-3,4-dihydroquinazolin-2-yl)propyl)amino)-6-methylpyrimidine-5-carbonitrile]	4.5 µM	0.05 µM	> 10 µM
CC[C@H](Nc1nc(N)nc(C)c1C#N)c1nc2cccc(Cl)c2c(=O)n1N1CCN(Cc2ccc(F)cc2)CC1 [Compound 90, (S)-2-amino-4-((1-(5-chloro-3-(4-(4-fluorobenzyl)piperazin-1-yl)-4-oxo-3,4-dihydroquinazolin-2-yl)propyl)amino)-6-methylpyrimidine-5-carbonitrile]	0.052 µM	0.023 µM	2 µM
CC[C@H](Nc1nc(N)nc(N)c1C#N)c1nc2cccc(Cl)c2c(=O)n1N1CCN(Cc2ccc(F)cc2)CC1 [Compound 91, (S)-2,4-diamino-6-((1-(5-chloro-3-(4-(4-fluorobenzyl)piperazin-1-yl)-4-oxo-3,4-dihydroquinazolin-2-yl)propyl)amino)pyrimidine-5-carbonitrile]	0.059 µM	0.022 µM	0.93 µM
CC[C@H](Nc1nc(N)nc(N)c1C#N)c1nc2cccc(Cl)c2c(=O)n1N1CCN(Cc2ccc(OC)cc2)CC1 [Compound 92, (S)-2,4-diamino-6-((1-(5-chloro-3-(4-(4-methoxybenzyl)piperazin-1-yl)-4-oxo-3,4-dihydroquinazolin-2-yl)propyl)amino)pyrimidine-5-carbonitrile]	0.041 µM	0.027 µM	1.4 µM
N#Cc1c(N)nc(N)nc1N[C@H](c1nc2cccc(Cl)c2c(=O)n1N1CCN(Cc2ccccc2)CC1)C1CC1 [Compound 93, (S)-2,4-diamino-6-(((3-(4-benzylpiperazin-1-yl)-5-chloro-4-oxo-3,4-dihydroquinazolin-2-yl)(cyclopropyl)methyl)amino)pyrimidine-5-carbonitrile]	0.048 µM	0.018 µM	1.3 µM
CC[C@H](Nc1nc(N)nc(N)c1C#N)c1nc2cccc(Cl)c2c(=O)n1N1CCN(Cc2ccccc2)CC1 [Compound 94, (S)-2,4-diamino-6-((1-(3-(4-benzylpiperazin-1-yl)-5-chloro-4-oxo-3,4-dihydroquinazolin-2-yl)propyl)amino)pyrimidine-5-carbonitrile]	0.056 µM	0.032 µM	2.9 µM
CC[C@H](Nc1nc(N)nc(N)c1C#N)c1nc2c(F)ccc(Cl)c2c(=O)n1N1CCN(Cc2ccccc2)CC1 [Compound 95, (S)-2,4-diamino-6-((1-(3-(4-benzylpiperazin-1-yl)-5-chloro-8-fluoro-4-oxo-3,4-dihydroquinazolin-2-yl)propyl)amino)pyrimidine-5-carbonitrile]	0.096 µM	0.038 µM	2 µM
C[C@H](Nc1nc(N)nc(N)c1C#N)c1nc2cccc(Cl)c2c(=O)n1N1CCN(CCOC(C)(C)C)CC1 [Compound 96, (S)-2,4-diamino-6-((1-(3-(4-(2-(tert-butoxy)ethyl)piperazin-1-yl)-5-chloro-4-oxo-3,4-dihydroquinazolin-2-yl)ethyl)amino)pyrimidine-5-carbonitrile]	0.01 µM	0.015 µM	1 µM
C[C@H](Nc1nc(N)nc(N)c1C#N)c1nc2cccc(Cl)c2c(=O)n1N1CCN(C2COC2)CC1 [Compound 97, (S)-2,4-diamino-6-((1-(5-chloro-3-(4-(oxetan-3-yl)piperazin-1-yl)-4-oxo-3,4-dihydroquinazolin-2-yl)ethyl)amino)pyrimidine-5-carbonitrile]	0.093 µM	0.015 µM	0.46 µM
C[C@H](Nc1nc(N)nc(N)c1C#N)c1nc2cccc(Cl)c2c(=O)n1N1CCN(CC(C)(C)C)CC1 [Compound 98, (S)-2,4-diamino-6-((1-(5-chloro-3-(4-neopentylpiperazin-1-yl)-4-oxo-3,4-dihydroquinazolin-2-yl)ethyl)amino)pyrimidine-5-carbonitrile]	0.004 µM	0.005 µM	1.2 µM
C[C@H](Nc1nc(N)nc(N)c1C#N)c1nc2cccc(Cl)c2c(=O)n1C1CCN(CC(F)F)CC1 [Compound 99, (S)-2,4-diamino-6-((1-(5-chloro-3-(1-(2,2-difluoroethyl)piperidin-4-yl)-4-oxo-3,4-dihydroquinazolin-2-yl)ethyl)amino)pyrimidine-5-carbonitrile]	0.72 µM	0.014 µM	1.6 µM
C[C@H](Nc1nc(N)nc(N)c1C#N)c1nc2cccc(Cl)c2c(=O)n1C1CCN(CC(F)(F)F)CC1 [Compound 100, (S)-2,4-diamino-6-((1-(5-chloro-4-oxo-3-(1-(2,2,2-trifluoroethyl)piperidin-4-yl)-3,4-dihydroquinazolin-2-yl)ethyl)amino)pyrimidine-5-carbonitrile]	0.97 µM	0.015 µM	1.3 µM
C[C@H](Nc1nc(N)nc(N)c1C#N)c1nc2cccc(Cl)c2c(=O)n1C1CCN(Cc2ccccc2)CC1 [Compound 101, (S)-2,4-diamino-6-((1-(3-(1-benzylpiperidin-4-yl)-5-chloro-4-oxo-3,4-dihydroquinazolin-2-yl)ethyl)amino)pyrimidine-5-carbonitrile]	0.044 µM	0.021 µM	4.2 µM
N#Cc1c(N)ncnc1N[C@H](c1nc2cccc(Cl)c2c(=O)n1N1CCNCC1)C1CC1 [Compound 102, (S)-4-amino-6-(((5-chloro-4-oxo-3-(piperazin-1-yl)-3,4-dihydroquinazolin-2-yl)(cyclopropyl)methyl)amino)pyrimidine-5-carbonitrile]	0.057 µM	0.002 µM	> 10 µM
C[C@H](Nc1ncnc(N)c1C#N)c1nc2cccc(Cl)c2c(=O)n1C1CCN(CC(F)(F)F)CC1 [Compound 103, (S)-4-amino-6-((1-(5-chloro-4-oxo-3-(1-(2,2,2-trifluoroethyl)piperidin-4-yl)-3,4-dihydroquinazolin-2-yl)ethyl)amino)pyrimidine-5-carbonitrile]	2.2 µM	0.01 µM	> 10 µM
C[C@H](Nc1nc(N)nc(N)c1Cl)c1nc2cccc(Cl)c2c(=O)n1C1CCN(CC(F)(F)F)CC1 [Compound 104, (S)-5-chloro-2-(1-((2,6-diamino-5-chloropyrimidin-4-yl)amino)ethyl)-3-(1-(2,2,2-trifluoroethyl)piperidin-4-yl)quinazolin-4(3H)-one]	10 µM	0.26 µM	> 10 µM
